Experimental data: patent US20070286822A1, “Compounds for the Treatment of Periodontal Disease” (ANACOR PHARMACEUTICALS INC., priority 2006, published 2007)

Work on `Fc1ccc2c(c1)COB2c1ccccc1` [9b, 1,3-Dihydro-5-fluoro-1-phenyl-2,1-benzoxaborole] yielded a melting point of 90 to 99 °C.

`Fc1ccc(B2OCc3ccccc32)cc1` [9e, 1,3-Dihydro-1-(4-fluorophenyl)-2,1-benzoxaborole] showed a melting point of 53 to 55 °C.

Work on `Fc1ccc2c(c1)COB2c1cccc(Cl)c1` [9f, 1-(3-Chlorophenyl)-1,3-dihydro-5-fluoro-2,1-benzoxaborole] yielded a melting point of 112 to 114 °C.

`Fc1cccc(B2OCc3cc(F)ccc32)c1` [9g, 1,3-Dihydro-5-fluoro-1-(3-fluorophenyl)-2,1-benzoxaborole] gave a melting point of 80 to 82 °C.

For `Fc1ccc(B2OCc3cc(F)ccc32)cc1` [9h, 1,3-Dihydro-5-fluoro-1-(4-fluorophenyl)-2,1-benzoxaborole], the melting point was 75 to 77 °C.

In the case of `Cc1cccc(B2OCc3cc(F)ccc32)c1` [9i, 1,3-Dihydro-5-fluoro-1-(3-methylphenyl)-2,1-benzoxaborole], the melting point is reported as 48 to 49 °C.

For `Cc1ccc(B2OCc3cc(F)ccc32)cc1` [9j, 1,3-Dihydro-5-fluoro-1-(4-methylphenyl)-2,1-benzoxaborole], the melting point was 48 to 49 °C.

`C(=Cc1ccccc1)B1OCc2ccccc21` [10a, 1,3-Dihydro-1-styryl-2,1-benzoxaborole] showed a melting point of 57 to 59 °C.

`Fc1ccc2c(c1)COB2C=Cc1ccccc1` [10b, 1,3-Dihydro-5-fluoro-1-styryl-2,1-benzoxaborole] gave a melting point of 84 to 86 °C.

With `COc1ccc2c(c1)COB2O` [C7, 5-methoxybenzo[c][1,2]oxaborol-1(3H)-ol] the melting point was 102 to 104 °C.

For `Cc1ccc2c(c1)COB2O` [C8, 5-methylbenzo[c][1,2]oxaborol-1(3H)-ol], the melting point was 124 to 128 °C.

In the case of `OB1OCc2ccc3ccccc3c21` [C11, naphtho[1,2-c][1,2]oxaborol-1(3H)-ol], the melting point is reported as 139 to 143 °C.

For `OB1OCc2ccc(F)cc21` [C13, 6-fluorobenzo[c][1,2]oxaborol-1(3H)-ol], the melting point was 110 to 117.5 °C.

With `N#Cc1cccc(Oc2ccc3c(c2)B(O)OC3)c1` [C19, 3-(1-hydroxy-1,3-dihydrobenzo[c][1,2]oxaborol-6-yloxy)benzonitrile] the melting point was 146 to 149 °C.

With `OB1OCc2ccc(Oc3ccc(Cl)cc3)cc21` [C20, 6-(4-chlorophenoxy)benzo[c][1,2]oxaborol-1(3H)-ol] the melting point was 119 to 130 °C.

With `OB1OCc2ccc(Oc3ccccc3)cc21` [C21, 6-phenoxybenzo[c][1,2]oxaborol-1(3H)-ol] the melting point was 95 to 99 °C.

`OB1OCc2ccc(Oc3ccc(OC(F)(F)F)cc3)cc21` [C29, 6-(4-(trifluoromethoxy)phenoxy)benzo[c][1,2]oxaborol-1(3H)-ol] showed a melting point of 97 to 101 °C.

Compound `CN(c1ccc2c(c1)COB2O)S(=O)(=O)c1ccccc1` [C30, N-(1-hydroxy-1,3-dihydrobenzo[c][1,2]oxaborol-5-yl)-N-methylbenzenesulfonamide] has a melting point of 85 to 95 °C.

`COc1ccc(Oc2ccc3c(c2)B(O)OC3)cc1` [C31, 6-(4-methoxyphenoxy)benzo[c][1,2]oxaborol-1(3H)-ol] gave a melting point of 126 to 129 °C.

For `COc1ccc(Sc2ccc3c(c2)B(O)OC3)cc1` [C32, 6-(4-methoxyphenylthio)benzo[c][1,2]oxaborol-1(3H)-ol], the melting point was 95 to 100 °C.

In the case of `COc1ccc(S(=O)(=O)c2ccc3c(c2)B(O)OC3)cc1` [C33, 6-(4-methoxyphenylsulfonyl)benzo[c][1,2]oxaborol-1(3H)-ol], the melting point is reported as 180 to 192 °C.

With `CCOC(=O)COc1ccc2c(c1)COB2O` [C41, Ethyl 2-(1-hydroxy-1,3-dihydrobenzo[c][1,2]oxaborol-5-yloxy)acetate] the melting point was 134 to 137 °C.

With `O=C(O)COc1ccc2c(c1)COB2O` [C42, 2-(1-hydroxy-1,3-dihydrobenzo[c][1,2]oxaborol-5-yloxy)acetic acid] the melting point was 163 to 166 °C.

In the case of `OB1OCc2ccc(Sc3cccs3)cc21` [C43, 6-(thiophen-2-ylthio)benzo[c][1,2]oxaborol-1(3H)-ol], the melting point is reported as 99 to 104 °C.

`OB1OCc2ccc(Sc3ccc(F)cc3)cc21` [C44, 6-(4-fluorophenylthio)benzo[c][1,2]oxaborol-1(3H)-ol] showed a melting point of 135 to 138 °C.

`CCCCC(=O)c1cccc(COc2ccc3c(c2)COB3O)c1` [C45, 1-(3-((1-hydroxy-1,3-dihydrobenzo[c][1,2]oxaborol-5-yloxy)methyl)phenyl)pentan-1-one] showed a melting point of 96 to 98 °C.

With `O=C(COc1ccc2c(c1)COB2O)N1CCCCC1` [C46, 2-(1-hydroxy-1,3-dihydrobenzo[c][1,2]oxaborol-5-yloxy)-1-(pieridin-1-yl)ethanone] the melting point was 158 to 163 °C.

For `O=C(COc1ccc2c(c1)COB2O)N1CCN(c2ncccn2)CC1` [C47, 2-(1-hydroxy-1,3-dihydrobenzo[c][1,2]oxaborol-5-yloxy)-1-(4-(pyrimidin-2-yl)piperazin-1-yl)ethanone], the melting point was 190 to 195 °C.

`OB1OCc2ccc(N3CCN(c4ccccn4)CC3)cc21` [C48, 6-(4-(pyridin-2-yl)piperazin-1-yl)benzo[c][1,2]oxaborol-1(3H)-ol] showed a melting point of 135 to 138 °C.

`CN(C)c1ccc2c(c1)B(O)OC2` [C51, 6-(dimethylamino)benzo[c][1,2]oxaborol-1(3H)-ol] showed a melting point of 120 to 123 °C.

Compound `O=C(Nc1ccc2c(c1)B(O)OC2)c1ccccc1` [C52, N-(1-hydroxy-1,3-dihydrobenzo[c][1,2]oxaborol-6-yl)benzamide] has a melting point of 186 to 193 °C.

Work on `OB1OCc2ccc(N3CCN(c4ccccc4)CC3)cc21` [C53, 6-(4-phenylpiperazin-1-yl)benzo[c][1,2]oxaborol-1(3H)-ol] yielded a melting point of 159 to 161 °C.

`OB1OCc2ccc(-n3ccc4ccccc43)cc21` [C55, 6-(1H-indol-1-yl)benzo[c][1,2]oxaborol-1(3H)-ol] showed a melting point of 135 to 140 °C.

Work on `OB1OCc2ccc(N3CCOCC3)cc21` [C56, 6-morpholinobenzo[c][1,2]oxaborol-1(3H)-ol] yielded a melting point of 128 to 132 °C.

`O=[N+]([O-])c1cc2c(cc1F)COB2O` [C58, 5-fluoro-6-nitrobenzo[c][1,2]oxaborol-1(3H)-ol] showed a melting point of 162 to 167 °C.

Work on `OCc1cc2c(cc1Br)COB2O` [C59] yielded a melting point greater than 257 °C.

For `OB1OCc2cc3c(cc21)COB3O` [C60, 3,7-dihydro-1,5-dihydroxy-1H,3H-Benzo[1,2-c:4,5-c′]bis[1,2]oxaborole], the melting point was greater than 250 °C.

In the case of `O=S(=O)(Nc1ccc2c(c1)B(O)OC2)c1ccccc1` [C62, N-(1-hydroxy-1,3-dihydrobenzo[c][1,2]oxaborol-6-yl)benzenesulfonamide], the melting point is reported as 175 to 184 °C.

For `CC(=O)Nc1ccc2c(c1)B(O)OC2` [C63, N-(1-hydroxy-1,3-dihydrobenzo[c][1,2]oxaborol-6-yl)acetamide], the melting point was 176 to 185 °C.

`OCc1cccc2c1B(O)OC2` [C64, 7-(hydroxymethyl)benzo[c][1,2]oxaborol-1(3H)-ol] showed a melting point of 241 to 250 °C.

`Cc1cccc2c1B(O)OC2` [C65, 7-methylbenzo[c][1,2]oxaborol-1(3H)-ol] gave a melting point of 107 to 111 °C.

`OB1OCc2ccc(-n3cc(Sc4ccccc4)c4ccccc43)cc21` [C66, 6-(3-(phenylthio)-1H-indol-1-yl)benzo[c][1,2]oxaborol-1(3H)-ol] showed a melting point of 159 to 163 °C.

In the case of `N#CCCSc1cn(-c2ccc3c(c2)B(O)OC3)c2ccccc12` [C67, 3-(1-(1-hydroxy-1,3-dihydrobenzo[c][1,2]oxaborol-6-yl)-1H-indol-3-ylthio)propanenitrile], the melting point is reported as 135 to 141 °C.

With `COc1ccc2c(ccn2-c2ccc3c(c2)B(O)OC3)c1` [C68, 6-(5-methoxy-1H-indol-1-yl)benzo[c][1,2]oxaborol-1(3H)-ol] the melting point was 120 to 124 °C.

Compound `OB1OCc2cc3c(cc21)OCO3` [C69, 5,6-methylenedioxybenzo[c][1,2]oxaborol-1(3H)-ol] has a melting point of 185 to 189 °C.

For `Nc1cc2c(cc1F)COB2O` [C70, 6-amino-5-fluorobenzo[c][1,2]oxaborol-1(3H)-ol], the melting point was 142 to 145 °C.

In the case of `OB1OCc2cc(F)c(NCc3ccccc3)cc21` [C71, 6-(benzylamino)-5-fluorobenzo[c][1,2]oxaborol-1(3H)-ol], the melting point is reported as 159 to 164 °C.

`COc1ccc2c(c1)c(Sc1ccccc1)cn2-c1ccc2c(c1)B(O)OC2` [C72, 6-(5-methoxy-3-(phenylthio)-1H-indol-1-yl)benzo[c][1,2]oxaborol-1(3H)-ol] gave a melting point of 135 to 141 °C.

Work on `COc1ccc2c(c1)c(SCCC#N)cn2-c1ccc2c(c1)B(O)OC2` [C73, 3-(1-(1-hydroxy-1,3-dihydrobenzo[c][1,2]oxaborol-6-yl)-5-methoxy-1H-indol-3-ylthio)propanenitrile] yielded a melting point of 149 to 154 °C.

`N#Cc1ccc(Oc2cccc3c2B(O)OC3)cc1` [C74, 4-(1-hydroxy-1,3-dihydrobenzo[c][1,2]oxaborol-7-yloxy)benzonitrile] showed a melting point of 148 to 153 °C.

For `OB1OCc2ccc(-n3ccc4cc(Cl)ccc43)cc21` [C75, 6-(5-chloro-1H-indol-1-yl)benzo[c][1,2]oxaborol-1(3H)-ol], the melting point was 149 to 154 °C.

In the case of `N#CCCSc1cn(-c2ccc3c(c2)B(O)OC3)c2ccc(Cl)cc12` [C76, 3-(5-chloro-1-(1-hydroxy-1,3-dihydrobenzo[c][1,2]oxaborol-6-yl)-1H-indol-3-ylthio)propanenitrile], the melting point is reported as greater than 225 °C.

`OB1OCc2ccc(NCc3ccccc3)cc21` [C77, 6-(benzylamino)benzo[c][1,2]oxaborol-1(3H)-ol] gave a melting point of 126 to 133 °C.

`OB1OCc2ccc(N(Cc3ccccc3)Cc3ccccc3)cc21` [C78, 6-(dibenzylamino)benzo[c][1,2]oxaborol-1(3H)-ol] showed a melting point of 115 to 123 °C.

In the case of `OB1OCc2ccc(-n3cc(Sc4ccccc4)c4cc(Cl)ccc43)cc21` [C80, 6-(5-chloro-3-(phenylthio)-1H-indol-1-yl)benzo[c][1,2]oxaborol-1(3H)-ol], the melting point is reported as 145 to 151 °C.

For `OB1OCc2cccc(F)c21` [C86, 7-fluorobenzo[c][1,2]oxaborol-1(3H)-ol], the melting point was 120 to 124 °C.

`OB1OCc2ccc(Oc3ccc(C(F)(F)F)cc3)cc21` [C87, 6-(4-(trifluoromethyl)phenoxy)benzo[c][1,2]oxaborol-1(3H)-ol] gave a melting point of 98 to 105 °C.
